# In the supplement of paper PMC10307832:
# Columns and labels:
# Experiment in all cases: relative viability (nuclei count vs DMSO), 5 days (fraction); higher = more cells survive
# [1] = test system: CAL-12T
# Summary of the method: (§1)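 For relative viability, nuclei counts in treated wells were divided by those in vehicle wells. Lung cancer cell lines had been pin-tool dosed in 1536-well plates the day after seeding and cultured for 5 days, then fixed and stained in one step (final 0.05% Triton X-100, 1% formaldehyde, 1 ug/ml Hoechst) and imaged at 4×. Doses were one drug alone or a fixed anchor-drug dose plus five library-drug doses (not always all listed) in √10 steps, and values are duplicate-plate medians.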
# [2] = test system: EKVX
# Summary of the method: as §1
# [3] = test system: H3255
# Summary of the method: as §1
# [4] = test system: HCC-15
# Summary of the method: as §1
# [5] = test system: HCC-827
# Summary of the method: as §1
# [6] = test system: LCLC-97TM1
# Summary of the method: as §1
# [7] = test system: LK-2
# Summary of the method: as §1
# [8] = test system: NCI-H1355
# Summary of the method: as §1
# [9] = test system: NCI-H1563
# Summary of the method: as §1
# [10] = test system: NCI-H1650
# Summary of the method: as §1
# [11] = test system: NCI-H1734
# Summary of the method: as §1
# [12] = test system: NCI-H1755
# Summary of the method: as §1
# [13] = test system: NCI-H1975
# Summary of the method: as §1
# [14] = test system: NCI-H2228
# Summary of the method: as §1
# [15] = test system: NCI-H2342
# Summary of the method: as §1
# [16] = test system: NCI-H2405
# Summary of the method: as §1
# [17] = test system: NCI-H322M
# Summary of the method: as §1
# [18] = test system: NCI-H520
# Summary of the method: as §1
# [19] = test system: NCI-H661
# Summary of the method: as §1
# [20] = test system: PC-14
# Summary of the method: as §1
# [21] = test system: PC-3 [JPC-3]
# Summary of the method: as §1
# [22] = test system: RERF-LC-KJ
# Summary of the method: as §1
smiles,measurement,setting,value
O=c1cc(N2CCOCC2)oc2c(-c3cccc4c3sc3ccccc34)cccc12 + N=C(N)NC(=N)NCCc1ccccc1 [Phenformin] (partner 250 µM),relative viability,[1]; first compound 0.01 µM,0.519
same,relative viability,[1]; first compound 0.03162 µM,0.629
same,relative viability,[1]; first compound 0.1 µM,0.607
same,relative viability,[1]; first compound 0.3162 µM,0.575
same,relative viability,[1]; first compound 1 µM,0.547
same,relative viability,[2]; first compound 0.01 µM,0.228
same,relative viability,[2]; first compound 0.03162 µM,0.238
same,relative viability,[2]; first compound 0.1 µM,0.201
same,relative viability,[2]; first compound 0.3162 µM,0.216
same,relative viability,[2]; first compound 1 µM,0.199
same,relative viability,[3]; first compound 0.01 µM,0.388
same,relative viability,[3]; first compound 0.03162 µM,0.334
same,relative viability,[3]; first compound 0.1 µM,0.328
same,relative viability,[3]; first compound 0.3162 µM,0.368
same,relative viability,[3]; first compound 1 µM,0.35
same,relative viability,[4]; first compound 0.01 µM,0.47
same,relative viability,[4]; first compound 0.03162 µM,0.481
same,relative viability,[4]; first compound 0.1 µM,0.596
same,relative viability,[4]; first compound 0.3162 µM,0.481
same,relative viability,[4]; first compound 1 µM,0.498
same,relative viability,[5]; first compound 0.01 µM,0.368
same,relative viability,[5]; first compound 0.03162 µM,0.391
same,relative viability,[5]; first compound 0.1 µM,0.396
same,relative viability,[5]; first compound 0.3162 µM,0.405
same,relative viability,[5]; first compound 1 µM,0.402
same,relative viability,[6]; first compound 0.01 µM,0.43
same,relative viability,[6]; first compound 0.03162 µM,0.458
same,relative viability,[6]; first compound 0.1 µM,0.431
same,relative viability,[6]; first compound 0.3162 µM,0.378
same,relative viability,[6]; first compound 1 µM,0.449
same,relative viability,[7]; first compound 0.01 µM,0.593
same,relative viability,[7]; first compound 0.03162 µM,0.404
same,relative viability,[7]; first compound 0.1 µM,0.573
same,relative viability,[7]; first compound 0.3162 µM,0.38
same,relative viability,[7]; first compound 1 µM,0.361
same,relative viability,[8]; first compound 0.01 µM,0.45
same,relative viability,[8]; first compound 0.03162 µM,0.446
same,relative viability,[8]; first compound 0.1 µM,0.316
same,relative viability,[8]; first compound 0.3162 µM,0.447
same,relative viability,[8]; first compound 1 µM,0.42
same,relative viability,[9]; first compound 0.01 µM,0.644
same,relative viability,[9]; first compound 0.03162 µM,0.733
same,relative viability,[9]; first compound 0.1 µM,0.635
same,relative viability,[9]; first compound 0.3162 µM,0.671
same,relative viability,[9]; first compound 1 µM,0.612
same,relative viability,[10]; first compound 0.01 µM,0.352
same,relative viability,[10]; first compound 0.03162 µM,0.48
same,relative viability,[10]; first compound 0.1 µM,0.346
same,relative viability,[10]; first compound 0.3162 µM,0.449
same,relative viability,[10]; first compound 1 µM,0.362
same,relative viability,[11]; first compound 0.01 µM,0.379
same,relative viability,[11]; first compound 0.03162 µM,0.379
same,relative viability,[11]; first compound 0.1 µM,0.403
same,relative viability,[11]; first compound 0.3162 µM,0.388
same,relative viability,[11]; first compound 1 µM,0.352
same,relative viability,[12]; first compound 0.01 µM,0.652
same,relative viability,[12]; first compound 0.03162 µM,0.694
same,relative viability,[12]; first compound 0.1 µM,0.655
same,relative viability,[12]; first compound 0.3162 µM,0.614
same,relative viability,[12]; first compound 1 µM,0.605
same,relative viability,[13]; first compound 0.01 µM,0.414
same,relative viability,[13]; first compound 0.03162 µM,0.439
same,relative viability,[13]; first compound 0.1 µM,0.408
same,relative viability,[13]; first compound 0.3162 µM,0.397
same,relative viability,[13]; first compound 1 µM,0.418
same,relative viability,[14]; first compound 0.01 µM,0.372
same,relative viability,[14]; first compound 0.03162 µM,0.391
same,relative viability,[14]; first compound 0.1 µM,0.262
same,relative viability,[14]; first compound 0.3162 µM,0.259
same,relative viability,[14]; first compound 1 µM,0.37
same,relative viability,[15]; first compound 0.01 µM,0.575
same,relative viability,[15]; first compound 0.03162 µM,0.59
same,relative viability,[15]; first compound 0.1 µM,0.601
same,relative viability,[15]; first compound 0.3162 µM,0.621
same,relative viability,[15]; first compound 1 µM,0.576
same,relative viability,[16]; first compound 0.01 µM,0.364
same,relative viability,[16]; first compound 0.03162 µM,0.38
same,relative viability,[16]; first compound 0.1 µM,0.356
same,relative viability,[16]; first compound 0.3162 µM,0.424
same,relative viability,[16]; first compound 1 µM,0.404
same,relative viability,[17]; first compound 0.01 µM,0.75
same,relative viability,[17]; first compound 0.03162 µM,0.781
same,relative viability,[17]; first compound 0.1 µM,0.395
same,relative viability,[17]; first compound 0.3162 µM,0.814
same,relative viability,[17]; first compound 1 µM,0.668
same,relative viability,[18]; first compound 0.01 µM,0.663
same,relative viability,[18]; first compound 0.03162 µM,0.555
same,relative viability,[18]; first compound 0.1 µM,0.547
same,relative viability,[18]; first compound 0.3162 µM,0.672
same,relative viability,[18]; first compound 1 µM,0.644
same,relative viability,[19]; first compound 0.01 µM,0.291
same,relative viability,[19]; first compound 0.03162 µM,0.278
same,relative viability,[19]; first compound 0.1 µM,0.28
same,relative viability,[19]; first compound 0.3162 µM,0.269
same,relative viability,[19]; first compound 1 µM,0.285
same,relative viability,[20]; first compound 0.01 µM,0.292
same,relative viability,[20]; first compound 0.03162 µM,0.758
same,relative viability,[20]; first compound 0.1 µM,0.428
same,relative viability,[20]; first compound 0.3162 µM,0.902
same,relative viability,[20]; first compound 1 µM,0.361
same,relative viability,[21]; first compound 0.01 µM,0.467
same,relative viability,[21]; first compound 0.03162 µM,0.476
same,relative viability,[21]; first compound 0.1 µM,0.441
same,relative viability,[21]; first compound 0.3162 µM,0.496
same,relative viability,[21]; first compound 1 µM,0.513
same,relative viability,[22]; first compound 0.01 µM,0.429
same,relative viability,[22]; first compound 0.03162 µM,0.413
same,relative viability,[22]; first compound 0.1 µM,0.412
same,relative viability,[22]; first compound 0.3162 µM,0.418
same,relative viability,[22]; first compound 1 µM,0.427
